The vapor or sublimation pressure is the pressure of vapour in equilibrium with the condensed phase.

The results in this text go back to the NIST ThermoML archive (doi:10.1021/je010272x).

The conditions of series [1]: Liquid.
The nature of series [2]: Boiling temperature at pressure P. The note with it: Liquid, ebulliometry.

Numbers after ± are expanded uncertainties.

Consider `CCC(C)CO` (centres undefined) [2-methyl-1-butanol], for which the “vapor or sublimation pressure” value in series [1] (357.85 K) turned out to be 16.7 ± 0.3 kPa; in series [1] (364.85 K), 23.3 ± 0.3 kPa; in series [1] (370.45 K) it was 30 ± 0.4 kPa; in series [1] (372.95 K) it was 33.3 ± 0.4 kPa; in series [1] (375.15 K), 36.7 ± 0.4 kPa; in series [1] (379.05 K), 43.3 ± 0.4 kPa. Also, the “vapor or sublimation pressure” value worked out at 50 ± 0.4 kPa in series [1] (382.75 K); 56.6 ± 0.5 kPa in series [1] (385.65 K); 63.3 ± 0.5 kPa in series [1] (388.95 K); 66.6 ± 0.5 kPa in series [1] (390.35 K); 70 ± 0.5 kPa in series [1] (391.65 K); 76.6 ± 0.5 kPa in series [1] (394.15 K). Moreover, the “vapor or sublimation pressure” value came out at 83.3 ± 0.6 kPa in series [1] (396.65 K), 90 ± 0.6 kPa in series [1] (398.85 K), 96.6 ± 0.6 kPa in series [1] (401.05 K) and 101.3 ± 0.6 kPa in series [1] (402.45 K).
For `CCO` [ethanol], the results for the “Boiling temperature at pressure P” value in series [2] (33.3 kPa), in series [2] (66.6 kPa) and in series [2] (101.3 kPa) were 52.60 ± 0.2 °C, 68.00 ± 0.2 °C and 78.30 ± 0.2 °C, respectively.
